From the NIST ThermoML archive (doi:10.1016/j.jct.2009.11.011)

Key:
[1] = Liquid; for mass density: Vibrating tube method; for vapor or sublimation pressure: Ebulliometric method (Recirculating still)
[2] = molar heat capacity at saturation pressure; settings: Liquid

c1ccc2c(c1)ccc1cccnc12 [benzo[h]quinoline]
Settings | mass density [kg/m3] | molar heat capacity [J/K/mol]
[1], 348.13 K | 1121.1 | –
[1], 373.12 K | 1104.9 | –
[1], 398.12 K | 1087.2 | –
[1], 423.11 K | 1068.1 | –
[1], 448.11 K | 1051.1 | –
[1], 473.11 K | 1030.8 | –
[1], 498.11 K | 1011.6 | –
[1], 523.11 K | 992.8 | –
[2], 400 K | – | 307.8
[2], 410 K | – | 312.9
[2], 420 K | – | 317.9
[2], 430 K | – | 323.1
[2], 440 K | – | 328.2
[2], 450 K | – | 333.3
[2], 460 K | – | 338.4
[2], 470 K | – | 343.5
[2], 480 K | – | 348.5
[2], 490 K | – | 353.5
[2], 500 K | – | 358.4
[2], 510 K | – | 363.3
[2], 520 K | – | 368.1
[2], 530 K | – | 372.7
[2], 540 K | – | 377.2
[2], 550 K | – | 381.6
[2], 560 K | – | 385.8
[2], 570 K | – | 389.7
[2], 580 K | – | 393.4
[2], 590 K | – | 396.9
[2], 600 K | – | 400

c1ccc2c(c1)cnc1ccccc12 [phenanthridine]
Settings | mass density [kg/m3] | molar heat capacity [J/K/mol] | vapor or sublimation pressure [kPa]
[1], 423.11 K | 1081.8 | – | –
[1], 448.11 K | 1062.7 | – | –
[1], 473.11 K | 1043.7 | – | –
[1], 473.89 K | – | – | 2
[1], 481.92 K | – | – | 2.666
[1], 493.84 K | – | – | 4
[1], 498.11 K | 1023.7 | – | –
[1], 502.72 K | – | – | 5.333
[1], 515.93 K | – | – | 7.999
[1], 523.11 K | 1003.9 | – | –
[1], 525.85 K | – | – | 10.67
[1], 533.86 K | – | – | 13.33
[1], 542.18 K | – | – | 16.66
[1], 548.11 K | 983.7 | – | –
[1], 549.09 K | – | – | 19.93
[1], 558.18 K | – | – | 25.02
[1], 567.34 K | – | – | 31.18
[1], 576.54 K | – | – | 38.56
[1], 585.79 K | – | – | 47.38
[1], 595.1 K | – | – | 57.82
[1], 604.47 K | – | – | 70.12
[1], 613.89 K | – | – | 84.53
[1], 623.35 K | – | – | 101.33
[2], 400 K | – | 314.5 | –
[2], 410 K | – | 319.1 | –
[2], 420 K | – | 323.8 | –
[2], 430 K | – | 328.3 | –
[2], 440 K | – | 332.9 | –
[2], 450 K | – | 337.4 | –
[2], 460 K | – | 341.8 | –
[2], 470 K | – | 346.2 | –
[2], 480 K | – | 350.6 | –
[2], 490 K | – | 354.9 | –
[2], 500 K | – | 359.2 | –
[2], 510 K | – | 363.4 | –
[2], 520 K | – | 367.6 | –
[2], 530 K | – | 371.7 | –
[2], 540 K | – | 375.7 | –
[2], 550 K | – | 379.7 | –
[2], 560 K | – | 383.7 | –
[2], 570 K | – | 387.6 | –
[2], 580 K | – | 391.4 | –
[2], 590 K | – | 395.2 | –
[2], 600 K | – | 398.8 | –
